In patent US20130012546A1 (priority 2009, published 2013):

Test: logP(HCOOH) by HPLC
Assay type: physicochemical
Conditions: HPLC on reversed phase columns, pH 2.7, 0.1% formic acid in water / acetonitrile gradient

| Compound | log p |
| --- | --- |
| CC1=C(CC(C)OCC(=O)Nc2cccc(CON=C(c3ccccc3)c3nnnn3C)n2)C1 (centres unmarked) [compound 223] | 4.3 |
| CCC(OC1CCC1)C(=O)Nc1cccc(CON=C(c2ccccc2)c2nnnn2C)n1 (centres unmarked) [compound 194] | 4.11 |
| CC1=C(CC(C)OC(=O)Nc2nc(CON=C(c3ccccc3)c3nnnn3C)cs2)C1(C)C (centres unmarked) [compound 209] | 4.68 |
| CC1CCC(OC(C)C(=O)Nc2cccc(CON=C(c3ccccc3)c3nnnn3C)n2)CC1 (centres unmarked) [compound 198] | 4.81 |
| Cn1nnnc1C(=NOCc1csc(NC(=O)CON=C2CCCCC2)n1)c1ccccc1 [compound 200] | 3.46 |
| CC1=C(CC(C)OCC(=O)Nc2cccc(CON=C(c3ccccc3)n3nnnc3C)n2)C1(C)C (centres unmarked) [compound 222] | 5.42 |
| CC1=C(CC(C)OCC(=O)Nc2nc(CON=C(c3ccccc3)c3nnnn3C)cs2)C1 (centres unmarked) [compound 219] | 4.03 |
| CC(=NOCC(=O)Nc1cccc(CON=C(c2ccccc2)n2nnnc2C)n1)c1ccccc1 [compound 202] | 3.94 |
| CC=NOCCOC(=O)Nc1cccc(CON=C(c2ccccc2)c2nnnn2C)n1 [compound 214] | 2.96 |

Same assay, conditions: HPLC on reversed phase columns, pH 2.7, 0.1% formic acid in water / acetonitrile, linear gradient 10% to 95% acetonitrile; EEC directive 79/831 Annex V.A8

| Compound | log p |
| --- | --- |
| CC(OC1CCCCCC1)C(=O)Nc1cccc(CON=C(c2ccccc2)c2nnnn2C)n1 (centres unmarked) [Example 100] | 4.8 |
| C=C(C)C(C)=CCC(C)OCC(=O)Nc1nc(CON=C(c2ccccc2)n2nnnc2C)cs1 (centres unmarked) [compound 110] | 4.56 |
| C#CCOC(C(=O)Nc1cccc(CON=C(c2ccccc2)n2nnnc2C)n1)C(C)C (centres unmarked) [compound 120] | 3.7 |
| CCC(OC1CCCCC1)C(=O)Nc1cccc(CON=C(c2ccccc2)n2nnnc2C)n1 (centres unmarked) [compound 186] | 4.91 |
| CON=C(C(=O)Nc1cccc(CON=C(c2ccccc2)c2nnnn2C)n1)c1ccc(C)cc1 [compound 138] | 4.27 |
| C=C=CCCCOC(=O)Nc1cccc(CON=C(c2ccccc2)n2nnnc2C)n1 [compound 142] | 4.01 |
| CCC(OC1CCCCCC1)C(=O)Nc1cccc(CON=C(c2ccccc2)n2nnnc2C)n1 (centres unmarked) [compound 189] | 5.41 |
| Cc1nnnn1C(=NOCc1csc(NC(=O)OCCCC2CCCC2)n1)c1ccccc1 [Example 65] | 4.77 |
| C#CCOC(CC)C(=O)Nc1cccc(CON=C(c2ccccc2)c2nnnn2C)n1 (centres unmarked) [compound 121] | 3.27 |
| CCC(OC1CCCCCC1)C(=O)Nc1nc(CON=C(c2ccccc2)n2nnnc2C)cs1 (centres unmarked) [compound 169] | 4.93 |
| C=C=CCCC(=O)Nc1cccc(CON=C(c2ccccc2)n2nnnc2C)n1 [compound 141] | 3.23 |
| CCON=C(C(=O)Nc1nc(CON=C(c2ccccc2)n2nnnc2C)cs1)c1ccc(Cl)cc1 [compound 123] | 4.61 |
| CC(OC(=O)Nc1cccc(CON=C(c2ccccc2)c2nnnn2C)n1)C1CCCCC1 (centres unmarked) [compound 161] | 4.98 |
| CON=C(C(=O)Nc1cccc(CON=C(c2ccccc2)n2nnnc2C)n1)c1ccc(Cl)cc1 [compound 132] | 4.69 |
| Cn1nnnc1C(=NOCc1csc(NC(=O)C(OC2CCCCC2)c2ccccc2)n1)c1ccccc1 (centres unmarked) [compound 179] | 4.82 |
| Cn1nnnc1C(=NOCc1csc(NC(=O)OCC2CCCC2)n1)c1ccccc1 [Example 74] | 3.92 |
| Cc1nnnn1C(=NOCc1csc(NC(=O)OC(C)C2CCCC2)n1)c1ccccc1 (centres unmarked) [compound 148] | 4.3 |
| Cc1nnnn1C(=NOCc1csc(NC(=O)C(C)OC2CCCC(C)C2)n1)c1ccccc1 (centres unmarked) [compound 170] | 4.53 |
| Cc1nnnn1C(=NOCc1cccc(NC(=O)C(C)OC2CCCCC2)n1)c1ccccc1 (centres unmarked) [compound 182] | 4.46 |
| Cn1nnnc1C(=NOCc1cccc(NC(=O)OCCCC2CCCCC2)n1)c1ccccc1 [Example 71] | 5.45 |
| CON=C(C(=O)Nc1cccc(CON=C(c2ccccc2)n2nnnc2C)n1)c1ccc(F)cc1 [compound 136] | 4.11 |
| C#CCOC(C(=O)Nc1nc(CON=C(c2ccccc2)c2nnnn2C)cs1)C(C)C (centres unmarked) [compound 117] | 3.44 |
| CON=C(C(=O)Nc1nc(CON=C(c2ccccc2)n2nnnc2C)cs1)c1cccc(Cl)c1Cl [Example 30] | 4.32 |

| Compound | log p |
| --- | --- |
| Cc1nnnn1C(=NOCc1cccc(NC(=O)C(C)OC2CCC(C)CC2)n1)c1ccccc1 (centres unmarked) [compound 191] | 4.93 |
| C#CCOC(CC)C(=O)Nc1nc(CON=C(c2ccccc2)c2nnnn2C)cs1 (centres unmarked) [compound 116] | 3.08 |
| CCON=C(C(=O)Nc1nc(CON=C(c2ccccc2)n2nnnc2C)cs1)c1ccc(C)cc1 [compound 127] | 4.49 |
| CCC(OC1CCC1)C(=O)Nc1cccc(CON=C(c2ccccc2)n2nnnc2C)n1 (centres unmarked) [compound 187] | 4.2 |
| Cn1nnnc1C(=NOCc1cccc(NC(=O)OCC2CCCC2)n1)c1ccccc1 [Example 70] | 4.25 |
| Cc1nnnn1C(=NOCc1cccc(NC(=O)OC(C)C2CCCC2)n1)c1ccccc1 (centres unmarked) [compound 158] | 4.71 |
| C=CCCCOCC(=O)Nc1cccc(CON=C(c2ccccc2)n2nnnc2C)n1 [compound 112] | 3.83 |
| Cc1nnnn1C(=NOCc1cccc(NC(=O)COC2CC(C)CCC2C(C)C)n1)c1ccccc1 (centres unmarked) [Example 108] | 5.95 |
| CON=C(C(=O)Nc1nc(CON=C(c2ccccc2)n2nnnc2C)cs1)c1ccc(Br)cc1 [Example 29] | 4.41 |
| CC(OC(=O)Nc1nc(CON=C(c2ccccc2)c2nnnn2C)cs1)C1CCCCC1 (centres unmarked) [compound 151] | 4.58 |
| Cc1nnnn1C(=NOCc1cccc(NC(=O)C(C)OC2CCCCCC2)n1)c1ccccc1 (centres unmarked) [compound 184] | 4.86 |
| CCC(OC1CCCC1)C(=O)Nc1nc(CON=C(c2ccccc2)c2nnnn2C)cs1 (centres unmarked) [compound 175] | 4.16 |
| C=C=CCCC(=O)Nc1nc(CON=C(c2ccccc2)n2nnnc2C)cs1 [compound 139] | 3.09 |
| Cn1nnnc1C(=NOCc1cccc(NC(=O)OCCCC2CCCC2)n1)c1ccccc1 [Example 69] | 5.06 |
| Cc1nnnn1C(=NOCc1csc(NC(=O)OCCC2CCCC2)n1)c1ccccc1 [compound 146] | 4.33 |
| CCON=C(C(=O)Nc1nc(CON=C(c2ccccc2)n2nnnc2C)cs1)c1ccc(C)cc1 [compound 126] | 4.13 |
| Cc1nnnn1C(=NOCc1csc(NC(=O)COC2CC(C)CCC2C(C)C)n1)c1ccccc1 (centres unmarked) [Example 106] | 5.48 |
| CCON=C(C(=O)Nc1cccc(CON=C(c2ccccc2)c2nnnn2C)n1)c1ccc(Cl)cc1 [compound 137] | 4.83 |
| Cn1nnnc1C(=NOCc1csc(NC(=O)OCCCC2CCCCC2)n1)c1ccccc1 [Example 75] | 5.03 |
| Cc1nnnn1C(=NOCc1csc(NC(=O)C(C)OC2CCC(C)CC2)n1)c1ccccc1 (centres unmarked) [compound 171] | 4.53 |
| CCON=C(C(=O)Nc1cccc(CON=C(c2ccccc2)n2nnnc2C)n1)c1ccc(Cl)cc1 [compound 133] | 4.93 |
| Cn1nnnc1/C(=N\OCc1cccc(NC(=O)OCC2CCCCC2)n1)c1ccccc1 [Example 57] | 4.72 |

Same assay, conditions: reversed phase HPLC column; HPLC on reversed phase columns, pH 2.7, 0.1% formic acid in water / acetonitrile, linear gradient 10% to 95% acetonitrile; EEC directive 79/831 Annex V.A8; read-out: log p

| Compound | chromatographic logP |
| --- | --- |
| CC(CC1CC1)OC(=O)Nc1cccc(CO/N=C(/c2ccccc2)c2nnnn2C)n1 (centres unmarked) [Example 60, 1-cyclopropylpropan-2-yl {6-[({[(Z)-(1-methyl-1H-tetrazol-5-yl)(phenyl)methylene]amino}oxy)methyl]pyridin-2-yl}carbamate] | 4.15 |

Same assay, conditions: reversed phase HPLC columns, pH 2.7; HCOOH; read-out: logP(HCOOH)

| Compound | chromatographic logP |
| --- | --- |
| CC(CC1CC1)OC(=O)Nc1cccc(CO/N=C(/c2ccccc2)c2nnnn2C)n1 (centres unmarked) [Example 60, 1-cyclopropylpropan-2-yl {6-[({[(Z)-(1-methyl-1H-tetrazol-5-yl)(phenyl)methylene]amino}oxy)methyl]pyridin-2-yl}carbamate] | 4.15 |
